Measurements as given in patent US4100346A, “Certain 7(o-amino-methyl- or methylaminomethylphenyl- or cyclohexadienyl- or thienylacetamide)-3[1-carboxymethyl-(or ethyl- or propyl-)-tetrazol-5-ylthiomethyl]-3-cephem-4-carboxylic acids” (Bristol-Myers Company, priority 1976, dated 1978).
Converted amounts (≈) assume the structure as drawn. Like-named read-outs stand apart in the source and are kept apart here.

Tests used:
Pasteurella multocida = experiment: Growth inhibitory activity, antibiotic dilution technique; conditions: read-out: Minimum inhibitory concentration
Proteus mirabilis [1] = experiment: Effect of inoculum size on susceptibility of Enterobacteriaceae
Escherichia coli [2] = experiment: Minimum growth inhibitory and bactericidal concentrations for Enterobacteriaceae; format: cell-based; conditions: for MBC: read-out: MBC, minimum bactericidal concentration; for MIC: read-out: MIC, Minimum growth inhibitory concentration
Description: (§1) Miscellaneous. Methods for determining bactericidal activity and susceptibility to cell-free β-lactamase were those previously used; Leitner et al., BL-S640, A Cephalosporin With a Broad Spectrum of Antibacterial Activity: Properties in vitro, Antimicrob. Agents Chemother. 7:298-305 (1975).
(§2) *MIC, Minimum growth inhibitory concentration; MBC, minimum bactericidal
(§3) concentration; expressed as micrograms per milliliter. The inoculum was […]

Proteus vulgaris = experiment: as above; format: cell-based; conditions: Proteus vulgaris, inoculum 10^4 cells; for MBC: read-out: MBC, minimum bactericidal concentration; for MIC: read-out: MIC, Minimum growth inhibitory concentration
Description: as §1, §2, §3

Enterobacter aerogenes = experiment: as above; format: cell-based; conditions: Klebsiella aerogenes, inoculum 10^4 cells; for MBC: read-out: MBC, minimum bactericidal concentration; for MIC: read-out: MIC, Minimum growth inhibitory concentration
Description: as §1, §2, §3

Klebsiella pneumoniae = experiment: as above; format: cell-based; conditions: for MBC: read-out: MBC, minimum bactericidal concentration; for MIC: read-out: MIC, Minimum growth inhibitory concentration
Description: as §1, §2, §3

Proteus rettgeri [3] = experiment: as above; format: cell-based; conditions: Providencia rettgeri, inoculum 10^4 cells; for MBC: read-out: MBC, minimum bactericidal concentration; for MIC: read-out: MIC, Minimum growth inhibitory concentration
Description: as §1, §2, §3

Enterobacter cloacae = experiment: as above; format: cell-based; conditions: for MBC: read-out: MBC, minimum bactericidal concentration; for MIC: read-out: MIC, Minimum growth inhibitory concentration
Description: as §1, §2, §3

Proteus mirabilis [4] = experiment: as above; format: cell-based; conditions: for MBC: read-out: MBC, minimum bactericidal concentration; for MIC: read-out: MIC, Minimum growth inhibitory concentration
Description: as §1, §2, §3

Listeria monocytogenes = experiment: Growth inhibitory activity, antibiotic dilution technique; conditions: read-out: Minimum inhibitory concentration
Escherichia coli [5] = experiment: Effect of inoculum size on susceptibility of Enterobacteriaceae
Citrobacter sp. = experiment: Growth inhibitory activity, antibiotic dilution technique
Proteus rettgeri [6] = experiment: as above; conditions: Providencia rettgeri, read-out: percent of strains inhibited
[7] = Escherichia coli strain 1, inoculum 10^4 cells
[8] = Escherichia coli strain 2, inoculum 10^4 cells
[9] = Escherichia coli strain 3, inoculum 10^4 cells
[10] = Escherichia coli strain 4, inoculum 10^4 cells
[11] = Escherichia coli strain 5, inoculum 10^4 cells
[12] = Escherichia coli strain 6, inoculum 10^4 cells
[13] = Enterobacter aerogenes strain 1
[14] = Enterobacter aerogenes strain 2
[15] = Enterobacter aerogenes strain 3
[16] = Klebsiella pneumoniae strain 1, inoculum 10^4 cells
[17] = Klebsiella pneumoniae strain 2, inoculum 10^4 cells
[18] = Klebsiella pneumoniae strain 3, inoculum 10^4 cells
[19] = Klebsiella pneumoniae strain 4, inoculum 10^4 cells
[20] = Klebsiella pneumoniae strain 5, inoculum 10^4 cells
[21] = Klebsiella pneumoniae strain 6, inoculum 10^4 cells
[22] = Enterobacter cloacae strain 3, inoculum 10^4 cells
[23] = Enterobacter cloacae strain 4, inoculum 10^4 cells
[24] = Enterobacter cloacae strain 8, inoculum 10^4 cells
[25] = Proteus mirabilis strain 1, inoculum 10^4 cells
[26] = Proteus mirabilis strain 2, inoculum 10^4 cells
[27] = Proteus mirabilis strain 3, inoculum 10^4 cells
[28] = Proteus mirabilis strain 4, inoculum 10^4 cells
[29] = Proteus mirabilis strain 5, inoculum 10^4 cells

## Cc1nnc(SCC2=C(C(=O)O)N3C(=O)[C@@H](NC(=O)Cn4cnnn4)[C@H]3SC2)s1 [Cefazolin]
Pasteurella multocida
  MIC: 0.5 µg/mL (≈ 1.1 µM)
Proteus mirabilis [1]; read-out: Minimum Inhibitory Concentration, Proteus mirabilis strain 1, A, Inoculum of 10^2 organisms
  MIC: 4 µg/mL (≈ 8.8 µM)
Proteus mirabilis [1]; read-out: Minimum Inhibitory Concentration, Proteus mirabilis strain 1, B, Inoculum of 10^6 organisms
  MIC: 8 µg/mL (≈ 17.6 µM)
Proteus mirabilis [1]; read-out: Minimum Inhibitory Concentration, Proteus mirabilis strain 2, A, Inoculum of 10^2 organisms
  MIC: 4 µg/mL (≈ 8.8 µM)
Proteus mirabilis [1]; read-out: Minimum Inhibitory Concentration, Proteus mirabilis strain 2, B, Inoculum of 10^6 organisms
  MIC: 16 µg/mL (≈ 35.2 µM)
Proteus mirabilis [1]; read-out: Minimum Inhibitory Concentration, Proteus mirabilis strain 3, A, Inoculum of 10^2 organisms
  MIC: 8 µg/mL (≈ 17.6 µM)
Proteus mirabilis [1]; read-out: Minimum Inhibitory Concentration, Proteus mirabilis strain 3, B, Inoculum of 10^6 organisms
  MIC: 32 µg/mL (≈ 70.4 µM)
Proteus mirabilis [1]; read-out: Minimum Inhibitory Concentration, Proteus mirabilis strain 4, A, Inoculum of 10^2 organisms
  MIC: 4 µg/mL (≈ 8.8 µM)
Proteus mirabilis [1]; read-out: Minimum Inhibitory Concentration, Proteus mirabilis strain 4, B, Inoculum of 10^6 organisms
  MIC: 32 µg/mL (≈ 70.4 µM)
Proteus mirabilis [1]; read-out: Minimum Inhibitory Concentration, Proteus mirabilis strain 5, A, Inoculum of 10^2 organisms
  MIC: 4 µg/mL (≈ 8.8 µM)
Proteus mirabilis [1]; read-out: Minimum Inhibitory Concentration, Proteus mirabilis strain 5, B, Inoculum of 10^6 organisms
  MIC: 16 µg/mL (≈ 35.2 µM)
Escherichia coli [2]; [7]
  MBC: 2 µg/mL (≈ 4.4 µM)
  MIC: 2 µg/mL (≈ 4.4 µM)
Escherichia coli [2]; [8]
  MBC: 16 µg/mL (≈ 35.2 µM)
  MIC: 8 µg/mL (≈ 17.6 µM)
Escherichia coli [2]; [9]
  MBC: 2 µg/mL (≈ 4.4 µM)
  MIC: 2 µg/mL (≈ 4.4 µM)
Escherichia coli [2]; [10]
  MBC: 2 µg/mL (≈ 4.4 µM)
  MIC: 1 µg/mL (≈ 2.2 µM)
Escherichia coli [2]; [11]
  MBC: 2 µg/mL (≈ 4.4 µM)
  MIC: 2 µg/mL (≈ 4.4 µM)
Escherichia coli [2]; [12]
  MBC: 4 µg/mL (≈ 8.8 µM)
  MIC: 2 µg/mL (≈ 4.4 µM)
Proteus vulgaris; Proteus vulgaris strain 1
  MBC: 4 µg/mL (≈ 8.8 µM)
  MIC: 4 µg/mL (≈ 8.8 µM)
Proteus vulgaris; Proteus vulgaris strain 2
  MBC: 16 µg/mL (≈ 35.2 µM)
  MIC: 8 µg/mL (≈ 17.6 µM)
Proteus vulgaris; Proteus vulgaris strain 4
  MBC: 16 µg/mL (≈ 35.2 µM)
  MIC: 8 µg/mL (≈ 17.6 µM)
Enterobacter aerogenes; [13]
  MBC: 125 µg/mL (≈ 275 µM)
  MIC: 32 µg/mL (≈ 70.4 µM)
Enterobacter aerogenes; [14]
  MBC: > 250 µg/mL
  MIC: 63 µg/mL (≈ 139 µM)
Enterobacter aerogenes; [15]
  MBC: 250 µg/mL (≈ 550 µM)
  MIC: 63 µg/mL (≈ 139 µM)
Klebsiella pneumoniae; [16]
  MBC: 2 µg/mL (≈ 4.4 µM)
  MIC: 2 µg/mL (≈ 4.4 µM)
Klebsiella pneumoniae; [17]
  MBC: 2 µg/mL (≈ 4.4 µM)
  MIC: 1 µg/mL (≈ 2.2 µM)
Klebsiella pneumoniae; [18]
  MBC: 2 µg/mL (≈ 4.4 µM)
  MIC: 1 µg/mL (≈ 2.2 µM)
Klebsiella pneumoniae; [19]
  MBC: 4 µg/mL (≈ 8.8 µM)
  MIC: 2 µg/mL (≈ 4.4 µM)
Klebsiella pneumoniae; [20]
  MBC: 2 µg/mL (≈ 4.4 µM)
  MIC: 2 µg/mL (≈ 4.4 µM)
Klebsiella pneumoniae; [21]
  MBC: 4 µg/mL (≈ 8.8 µM)
  MIC: 2 µg/mL (≈ 4.4 µM)
Proteus rettgeri [3]; Proteus rettgeri strain 2
  MBC: 0.5 µg/mL (≈ 1.1 µM)
  MIC: 0.25 µg/mL (≈ 0.55 µM)
Proteus rettgeri [3]; Proteus rettgeri strain 3
  MBC: > 250 µg/mL
  MIC: 4 µg/mL (≈ 8.8 µM)
Enterobacter cloacae; [22]
  MBC: 8 µg/mL (≈ 17.6 µM)
  MIC: 4 µg/mL (≈ 8.8 µM)
Enterobacter cloacae; [23]
  MBC: > 250 µg/mL
  MIC: 250 µg/mL (≈ 550 µM)
Enterobacter cloacae; [24]
  MBC: > 250 µg/mL
  MIC: > 250 µg/mL
Proteus mirabilis [4]; [25]
  MBC: 8 µg/mL (≈ 17.6 µM)
  MIC: 4 µg/mL (≈ 8.8 µM)
Proteus mirabilis [4]; [26]
  MBC: 16 µg/mL (≈ 35.2 µM)
  MIC: 8 µg/mL (≈ 17.6 µM)
Proteus mirabilis [4]; [27]
  MBC: 8 µg/mL (≈ 17.6 µM)
  MIC: 8 µg/mL (≈ 17.6 µM)
Proteus mirabilis [4]; [28]
  MBC: 8 µg/mL (≈ 17.6 µM)
  MIC: 4 µg/mL (≈ 8.8 µM)
Proteus mirabilis [4]; [29]
  MBC: 8 µg/mL (≈ 17.6 µM)
  MIC: 8 µg/mL (≈ 17.6 µM)
Listeria monocytogenes
  MIC: 1.2 µg/mL (≈ 2.64 µM)
Escherichia coli [5]; read-out: Minimum Inhibitory Concentration, Escherichia coli strain 1, A, Inoculum of 10^2 organisms
  MIC: 1 µg/mL (≈ 2.2 µM)
Escherichia coli [5]; read-out: Minimum Inhibitory Concentration, Escherichia coli strain 1, B, Inoculum of 10^6 organisms
  MIC: 4 µg/mL (≈ 8.8 µM)
Escherichia coli [5]; read-out: Minimum Inhibitory Concentration, Escherichia coli strain 2, A, Inoculum of 10^2 organisms
  MIC: 2 µg/mL (≈ 4.4 µM)
Escherichia coli [5]; read-out: Minimum Inhibitory Concentration, Escherichia coli strain 2, B, Inoculum of 10^6 organisms
  MIC: 16 µg/mL (≈ 35.2 µM)
Escherichia coli [5]; read-out: Minimum Inhibitory Concentration, Escherichia coli strain 3, A, Inoculum of 10^2 organisms
  MIC: 1 µg/mL (≈ 2.2 µM)
Escherichia coli [5]; read-out: Minimum Inhibitory Concentration, Escherichia coli strain 3, B, Inoculum of 10^6 organisms
  MIC: 2 µg/mL (≈ 4.4 µM)
Escherichia coli [5]; read-out: Minimum Inhibitory Concentration, Escherichia coli strain 4, A, Inoculum of 10^2 organisms
  MIC: 1 µg/mL (≈ 2.2 µM)
Escherichia coli [5]; read-out: Minimum Inhibitory Concentration, Escherichia coli strain 4, B, Inoculum of 10^6 organisms
  MIC: 2 µg/mL (≈ 4.4 µM)
Escherichia coli [5]; read-out: Minimum Inhibitory Concentration, Escherichia coli strain 5, A, Inoculum of 10^2 organisms
  MIC: 1 µg/mL (≈ 2.2 µM)
Escherichia coli [5]; read-out: Minimum Inhibitory Concentration, Escherichia coli strain 5, B, Inoculum of 10^6 organisms
  MIC: 2 µg/mL (≈ 4.4 µM)
Escherichia coli [5]; read-out: Minimum Inhibitory Concentration, Escherichia coli strain 6, A, Inoculum of 10^2 organisms
  MIC: 1 µg/mL (≈ 2.2 µM)
Escherichia coli [5]; read-out: Minimum Inhibitory Concentration, Escherichia coli strain 6, B, Inoculum of 10^6 organisms
  MIC: 2 µg/mL (≈ 4.4 µM)
Escherichia coli [5]; read-out: Minimum Inhibitory Concentration, Escherichia coli strain 7, A, Inoculum of 10^2 organisms
  MIC: 1 µg/mL (≈ 2.2 µM)
Escherichia coli [5]; read-out: Minimum Inhibitory Concentration, Escherichia coli strain 7, B, Inoculum of 10^6 organisms
  MIC: 2 µg/mL (≈ 4.4 µM)
Citrobacter sp.; read-out: Minimum inhibitory concentration
  MIC: 75 µg/mL (≈ 165 µM)
Citrobacter sp.; read-out: Minimum inhibitory concentration, Citrobacter sp., 1 strain
  MIC: > 125 µg/mL
Proteus rettgeri [6]
  inhibition at 16 µg/mL: 44%
